Earlier results as cited in paper PMC9762682, “Tocotrienols: Exciting Biological and Pharmacological Properties of Tocotrienols and Naturally Occurring Compounds, Part II” (Annals of clinical case reports, 2022).

Legend:
[1] = tested on: Pancreas cancer cells; parameters: method as in PMID 29606130
[2] = tested on: Lung cancer cells; parameters: method as in PMID 29606130; value at effective dose: unit not given here
[3] = tested on: B-Lymphocyte cells; parameters: method as in PMID 29606130; value at effective dose: unit not given here;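 on IC50: anti-proliferation of cancer cells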

CC(C)=CCC/C(C)=C/CC/C(C)=C/CC[C@]1(C)CCc2cc(O)cc(C)c2O1 [δ-Tocotrienol]
IC50 [1]: 10 µM | percentage of control at IC50 dose [1]: 36% | effective dose ([1]; 48 h): 20 µM | percentage of control at effective dose ([1]; 48 h): 5% | IC50 [2]: 20 µM | effective dose [2]: 20 µM | percentage of control at IC50 dose [2]: 11% | percentage of control at effective dose [2]: 11% | value at effective dose [2]: 8.3 ± 2.1 | IC50 [3]: 10 µM | effective dose [3]: 20 µM | percentage of control at IC50 dose [3]: 55% | percentage of control at effective dose [3]: 21% | value at effective dose [3]: 2.7 ± 1.5
